Experimental data published in US20070128217A1 (priority 2003, published 2007).

How the values were obtained:
[1] = tested on: control sera (pooled serum of ten healthy LUMC hospital workers; commercial negative donor pooled serum from the Dutch bloodbank); assay type: binding, human; parameters: Binding of Control serum LUMC to linear peptides / Binding of Control serum Blood-bank to linear peptides / Binding of Control serum LUMC to looped peptides / Binding of Control Serum Blood-Bank to Looped peptides / Binding of Control serum LUMC to linear peptides of the protein M of SARS-CoV Urbani / Binding of Control serum Blood-bank to linear peptides of the protein M of SARS-CoV Urbani / Binding of Control serum LUMC to looped peptides of the protein M of SARS-CoV Urbani / Binding of Control Serum Blood-Bank to Looped peptides of the protein M of SARS-CoV Urbani: unit not given here
[2] = tested on: antibodies in sera from SARS patients (sera 1a, 1b, 2, 6, 37, 62, London, SARS-yellow, SARS-green); assay type: binding, human; parameters: Binding of serum 6 to linear peptides of protein X1 of SARS-CoV Urbani / Binding of serum 37 to linear peptides of protein X1 of SARS-CoV Urbani / Binding of serum 6 to looped/cyclic peptide (PEPSCAN-ELISA) / Binding of serum 37 to looped/cyclic peptide (PEPSCAN-ELISA) / Binding of serum 37 to looped/cyclic peptides of protein X1 of SARS-CoV Urbani / Binding of serum 6 to linear peptides of protein X2 / Binding of serum 37 to linear peptides of protein X2 / Binding of serum 37 to looped/cyclic peptides of protein X2 of SARS-CoV Urbani / Binding of serum 6 to linear peptides of protein M of SARS-CoV Urbani / Binding of serum 37 to linear peptides of protein M of SARS-CoV Urbani / Binding of serum 6 to looped/cyclic peptides of protein M of SARS-CoV Urbani / Binding of serum 37 to looped/cyclic peptides of protein M of SARS-CoV Urbani / Binding of serum 6 to linear peptides of protein X3 of SARS-CoV Urbani / Binding of serum 37 to linear peptides of protein X3 of SARS-CoV Urbani / Binding of serum 37 to looped/cyclic peptides of protein X3 of SARS-CoV Urbani / Binding of serum 6 to linear peptides of protein X4 of SARS-CoV Urbani / Binding of serum 37 to linear peptides of protein X4 of SARS-CoV Urbani / Binding of serum 37 to looped/cyclic peptides of protein X4 of SARS-CoV Urbani / Binding of serum 6 to linear peptides of protein X5 of SARS-CoV Urbani / Binding of serum 37 to linear peptides of protein X5 of SARS-CoV Urbani / Binding of serum 37 to looped/cyclic peptides of protein X5 of SARS-CoV Urbani / Binding of serum 6 to linear peptides of protein N of SARS-CoV Urbani / Binding of serum 37 to linear peptides of protein N of SARS-CoV Urbani / Binding of serum 6 to linear peptide (PEPSCAN-ELISA) / Binding of serum 1a to looped/cyclic peptides of protein N of SARS-CoV Urbani / Binding of serum 1b to looped/cyclic peptides of protein N of SARS-CoV Urbani / Binding of serum 2 to looped/cyclic peptides of protein N of SARS-CoV Urbani / Binding of serum 6 to looped/cyclic peptides of protein N of SARS-CoV Urbani / Binding of serum 37 to looped/cyclic peptides of protein N of SARS-CoV Urbani / Binding of serum 62 to looped/cyclic peptides of protein N of SARS-CoV Urbani / Binding of serum London to looped/cyclic peptides of protein N of SARS-CoV Urbani / Binding of serum SARS-green to looped/cyclic peptides of protein N of SARS-CoV Urbani: unit not given here
[3] = tested on: rabbit serum obtained by immunizing a rabbit with the SARS-CoV strain Frankfurt 1; assay type: binding; parameters: Binding of a rabbit serum to linear peptides / Binding of a rabbit serum to looped peptides / Rabbit serum linear peptides / Rabbit serum looped peptides / Binding of a rabbit serum to linear peptides of protein N of SARS-CoV Urbani (Rabbit serum linear peptides) / Binding of a rabbit serum to looped/cyclic peptides of protein N of SARS-CoV Urbani (Rabbit serum looped peptides): unit not given here
[4] = tested on: recombinant human anti-SARS-CoV antibody 03-018; assay type: binding; parameters: Binding of antibody 03-018 to linear peptides of the N protein of SARS-CoV Urbani / Binding of antibody 03-018 to looped/cyclic peptides of the N protein of SARS-CoV Urbani: unit not given here

Row | Sequence | Binding of Control Serum Blood-Bank to Looped peptides [1] | Binding of Control serum Blood-bank to linear peptides [1] | Binding of serum 1a to linear peptides of protein N of SARS-CoV Urbani [2] | Binding of serum 1a to looped/cyclic peptides of protein N of SARS-CoV Urbani [2] | Binding of serum 1b to linear peptides of protein N of SARS-CoV Urbani [2] | Binding of serum 1b to looped/cyclic peptides of protein N of SARS-CoV Urbani [2] | Binding of serum 2 to linear peptides of protein N of SARS-CoV Urbani [2] | Binding of serum 2 to looped/cyclic peptides of protein N of SARS-CoV Urbani [2] | Binding of serum 6 to linear peptides of protein N of SARS-CoV Urbani [2] | Binding of serum 6 to looped/cyclic peptides of protein N of SARS-CoV Urbani [2] | Binding of serum 37 to linear peptides of protein N of SARS-CoV Urbani [2] | Binding of serum 37 to looped/cyclic peptides of protein N of SARS-CoV Urbani [2] | Binding of serum 62 to linear peptides of protein N of SARS-CoV Urbani [2] | Binding of serum 62 to looped/cyclic peptides of protein N of SARS-CoV Urbani [2] | Binding of serum London to linear peptides of protein N of SARS-CoV Urbani [2] | Binding of serum London to looped/cyclic peptides of protein N of SARS-CoV Urbani [2] | Binding of serum SARS-green to linear peptides of protein N of SARS-CoV Urbani [2] | Binding of serum SARS-green to looped/cyclic peptides of protein N of SARS-CoV Urbani [2] | Binding of serum SARS-yellow to linear peptides of protein N of SARS-CoV Urbani [2] | Binding of serum SARS-yellow to looped/cyclic peptides of protein N of SARS-CoV Urbani [2] | further results
1 | PQSNQRSAPRITFGG | 0.8 | 0.5 | 0.3 | 0.5 | 0.2 | 0.3 | 0.2 | 0.5 | 0.1 | 0.5 | 0.6 | 0.8 | 0.6 | 0.7 | 0.4 | 0.5 | 0.3 | 0.4 | 0.5 | 0.6 | Binding of Control serum LUMC to linear peptides [1]: 0.6; Binding of Control serum LUMC to looped peptides [1]: 0.7; Recognition of the peptide by the rabbit serum [3]: also recognized; Recognition of the peptide by antibody 03-018 [4]: recognized
2 | PRGQGVPINTNSGPD | 0.4 | 0.7 | 0.2 | 0.2 | 0.1 | 0.1 | 0.1 | 0.2 | 0.1 | 0.1 | 0.6 | 0.3 | 0.4 | 0.2 | 0.4 | 0.2 | 0.2 | 0.1 | 0.6 | 0.1 | Binding of Control serum LUMC to linear peptides [1]: 0.5; Binding of Control serum LUMC to looped peptides [1]: 0.3; Binding of a rabbit serum to linear peptides of protein N of SARS-CoV Urbani (Rabbit serum linear peptides) [3]: 0.1; Binding of a rabbit serum to looped/cyclic peptides of protein N of SARS-CoV Urbani (Rabbit serum looped peptides) [3]: 0.0; Binding of antibody 03-018 to linear peptides of the N protein of SARS-CoV Urbani [4]: 0.1; Binding of antibody 03-018 to looped/cyclic peptides of the N protein of SARS-CoV Urbani [4]: 0.2
3 | PRITFGGPTDSTDNN | 0.6 | 0.6 | 0.2 | 0.3 | 0.1 | 0.2 | 0.2 | 0.3 | 0.1 | 0.2 | 0.7 | 0.7 | 0.6 | 0.5 | 0.5 | 0.3 | 0.6 | 0.8 | 0.3 | 0.4 | Binding of Control serum LUMC to linear peptides [1]: 0.5; Binding of Control serum LUMC to looped peptides [1]: 0.6; Binding of a rabbit serum to linear peptides of protein N of SARS-CoV Urbani (Rabbit serum linear peptides) [3]: 0.3; Binding of a rabbit serum to looped/cyclic peptides of protein N of SARS-CoV Urbani (Rabbit serum looped peptides) [3]: 0.4; Recognition of the peptide by antibody 03-018 [4]: recognized
4 | PSASAFFGMSRIGME | – | – | 0.2 | 0.4 | 0.1 | 0.3 | 0.1 | 0.3 | 0.1 | 0.2 | 0.6 | 0.6 | 0.5 | 0.4 | 0.5 | 0.3 | 0.1 | 0.3 | 0.6 | 0.4 | Control Serum Blood-Bank Looped peptides [1]: 0.4; Control serum Blood-bank linear peptides [1]: 0.6; Control serum LUMC linear peptides [1]: 0.6; Control serum LUMC looped peptides [1]: 0.5; Binding of a rabbit serum to linear peptides of protein N of SARS-CoV Urbani (Rabbit serum linear peptides) [3]: 0.1; Binding of a rabbit serum to looped/cyclic peptides of protein N of SARS-CoV Urbani (Rabbit serum looped peptides) [3]: 0.3; Binding of antibody 03-018 to linear peptides of the N protein of SARS-CoV Urbani [4]: 0.1; Binding of antibody 03-018 to looped/cyclic peptides of the N protein of SARS-CoV Urbani [4]: 0.2
